In patent publication US20130217664A1, “NOVEL COMPOUNDS USEFUL FOR THE TREATMENT OF DEGENERATIVE AND INFLAMMATORY DISEASES” (priority 2012, published 2013):

How the values were obtained:
Format in all cases: biochemical
human JAK1 = biological target: T1, human JAK1 (Homo sapiens, UniProt P23458); assay: JAK1 inhibition assay (polyGT substrate / Ulight-JAK1 peptide); conditions: recombinant human JAK1 catalytic domain; polyGT or Ulight-JAK1 peptide assay
T1 construct: catalytic domain, amino acids 866-1154; catalog number PV4774; purchased Invitrogen PV4774
How it was run: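 Signal scaled between vehicle and 10 μM staurosporine. Radiometric polyGT reactions ran 45 min at 30 °C, counted after phosphoric-acid stop. Ulight peptide reactions ran 60 min at room temperature, fluorescence read after adding Eu-PT66 detection mix with EDTA.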

human JAK2 = biological target: T2, human JAK2 (Homo sapiens, UniProt O60674); assay: JAK2 inhibition assay (polyGT substrate / Ulight-JAK1 peptide); conditions: recombinant human JAK2 catalytic domain; polyGT or Ulight-JAK1 peptide assay
T2 construct: catalytic domain (amino acids 808-1132; catalog number PV4210); GST; purchased Invitrogen PV4210
How it was run: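 Two JAK2 formats: a ^33P-ATP polyGT assay (1 μM cold ATP, 90 min, 30° C., cpm read-out) and a Ulight-JAK1 peptide assay read by Europium-anti-phosphotyrosine fluorescence after 60 min at room temperature.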

human TYK2 = biological target: T3, human TYK2 (Homo sapiens, UniProt P29597); assay: TYK2 inhibition assay; conditions: recombinant human TYK2 catalytic domain, polyGT substrate
T3 construct: catalytic domain (amino acids 871-1187; catalog number 08-147); purchased Carna Biosciences 08-147
T3 sequence (P29597 871-1187): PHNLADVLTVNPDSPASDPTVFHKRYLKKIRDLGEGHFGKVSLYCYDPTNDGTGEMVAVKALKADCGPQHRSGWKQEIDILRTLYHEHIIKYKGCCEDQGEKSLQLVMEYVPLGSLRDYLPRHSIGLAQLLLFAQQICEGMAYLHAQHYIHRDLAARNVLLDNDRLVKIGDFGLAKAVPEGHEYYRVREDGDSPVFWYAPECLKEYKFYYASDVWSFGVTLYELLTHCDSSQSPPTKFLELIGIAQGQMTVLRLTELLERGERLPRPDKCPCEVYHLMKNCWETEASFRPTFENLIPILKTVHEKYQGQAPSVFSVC
How it was run: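 Radiometric kinase reaction run 90 min at 30 °C, stopped with phosphoric acid, washed and scintillation-counted.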

T1 sequence (P23458 866-1154): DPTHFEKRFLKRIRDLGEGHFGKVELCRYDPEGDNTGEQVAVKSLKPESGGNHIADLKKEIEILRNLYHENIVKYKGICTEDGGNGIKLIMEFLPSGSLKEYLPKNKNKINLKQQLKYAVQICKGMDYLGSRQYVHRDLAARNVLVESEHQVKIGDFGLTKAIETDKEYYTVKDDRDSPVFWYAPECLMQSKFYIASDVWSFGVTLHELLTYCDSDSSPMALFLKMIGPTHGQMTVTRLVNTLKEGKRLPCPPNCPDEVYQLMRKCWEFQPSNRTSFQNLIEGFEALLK
T2 sequence (O60674 808-1132): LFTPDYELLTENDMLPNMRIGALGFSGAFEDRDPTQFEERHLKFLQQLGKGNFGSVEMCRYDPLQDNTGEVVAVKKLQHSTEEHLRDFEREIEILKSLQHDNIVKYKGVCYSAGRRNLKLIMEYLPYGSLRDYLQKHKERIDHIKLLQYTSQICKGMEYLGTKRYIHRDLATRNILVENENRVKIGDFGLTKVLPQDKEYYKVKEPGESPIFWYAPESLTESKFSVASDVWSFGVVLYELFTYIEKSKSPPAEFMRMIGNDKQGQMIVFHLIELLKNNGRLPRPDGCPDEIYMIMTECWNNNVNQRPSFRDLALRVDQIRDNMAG

| SMILES | IC50 (human JAK1) [nM] | IC50 (human JAK2) [nM] | IC50 (human TYK2) [nM] |
| --- | --- | --- | --- |
| Cc1ccc(OCc2ccccc2)cc1N(C)c1cc2c(cn1)ncn2C [Compound 56, N-(5-(benzyloxy)-2-methylphenyl)-N,1-dimethyl-1H-imidazo[4,5-c]pyridin-6-amine] | 101 to 500 | > 1000 | > 1000 |
| Cc1ccc(OCC#N)cc1N(C)c1cc2c(cn1)ncn2C [Compound 57, 2-(4-methyl-3-(methyl(1-methyl-1H-imidazo[4,5-c]pyridin-6-yl)amino)phenoxy)acetoni-trile] | 0.01 to 100 | 101 to 500 | 501 to 1000 |
| Cc1ccc(OCc2cccnc2)cc1N(C)c1cc2c(cn1)ncn2C [Compound 61, N,1-dimethyl-N-(2-methyl-5-(pyridin-3-ylmethoxy)phenyl)-1H-imidazo[4,5-c]pyridin-6-amine] | 0.01 to 100 | > 1000 | > 1000 |
| Cc1ccc(OCc2ccc(Cl)cc2)cc1N(C)c1cc2c(cn1)ncn2C [Compound 62, N-(5-(4-chlorobenzyloxy)-2-methylphenyl)-N,1-dimethyl-1H-imidazo[4,5-c]pyridin-6-amine] | 501 to 1000 | > 1000 | > 1000 |
| Cc1ccc(OCC(C)C)cc1N(C)c1cc2c(cn1)ncn2C [Compound 63, N-(5-isobutoxy-2-methylphenyl)-N,1-dimethyl-1H-imidazo[4,5-c]pyridin-6-amine] | 101 to 500 | > 1000 | > 1000 |
| Cc1c(OCC#N)cccc1N(C)c1cc2c(cn1)ncn2C [Compound 64, 2-(2-methyl-3-(methyl(1-methyl-1H-imidazo[4,5-c]pyridin-6-yl)amino)phenoxy)acetoni-trile] | 0.01 to 100 | 101 to 500 | 101 to 500 |
| Cc1cc(-c2cn[nH]c2)ccc1N(C)c1cc2c(cn1)ncn2C [Compound 71, N,1-Dimethyl-N-(2-methyl-4-(1H-pyrazol-4-yl)phenyl)-1H-imidazo[4,5-c]pyridin-6-amine] | 0.01 to 100 | 101 to 500 | 0.01 to 100 |
| Cc1cc(-c2cncnc2)ccc1N(C)c1cc2c(cn1)ncn2C [Compound 72, N,1-dimethyl-N-(2-methyl-4-(pyrimidin-5-yl)phenyl)-1H-imidazo[4,5-c]pyridin-6-amine] | 101 to 500 | > 1000 | 501 to 1000 |
| Cc1cc(-c2cnn(C)c2)ccc1N(C)c1cc2c(cn1)ncn2C [Compound 73, N,1-dimethyl-N-(2-methyl-4-(1-methyl-1H-pyrazol-4-yl)phenyl)-1H-imidazo[4,5-c]pyridin-6-amine] | 0.01 to 100 | 501 to 1000 | 101 to 500 |
| Cc1ccc(Oc2ccc(C#N)nc2)cc1N(C)c1cc2c(cn1)ncn2C [Compound 91, 5-(4-methyl-3-(methyl(1-methyl-1H-imidazo[4,5-c]pyridin-6-yl)amino)phenoxy)picolino-nitrile] | 0.01 to 100 | > 1000 | > 1000 |
| CCc1cc(-c2cnn(C)c2)ccc1N(C)c1cc2c(cn1)ncn2C [Compound 93, N-(2-Ethyl-4-(1-methyl-1H-pyrazol-4-yl)phenyl)-N,1-dimethyl-1H-imidazo[4,5-d]pyridin-6-amine] | 0.01 to 100 | 0.01 to 100 | 0.01 to 100 |
| CCc1cc(-c2cccnc2)ccc1N(C)c1cc2c(cn1)ncn2C [Compound 94, N-(2-ethyl-4-(pyridin-3-yl)phenyl)-N,1-dimethyl-1H-imidazo[4,5-c]pyridin-6-amine] | 0.01 to 100 | 101 to 500 | 0.01 to 100 |
| CCc1cc(-c2cncnc2)ccc1N(C)c1cc2c(cn1)ncn2C [Compound 95, N-(2-ethyl-4-(pyrimidin-5-yl)phenyl)-N,1-dimethyl-1H-imidazo[4,5-c]pyridin-6-amine] | 0.01 to 100 | 101 to 500 | 0.01 to 100 |
| CCc1cc(OC2CCN(S(C)(=O)=O)C2)ccc1N(C)c1cc2c(cn1)ncn2C (stereo not drawn) [Compound 110, N-(2-Ethyl-4-((1-(methylsulfonyl)pyrrolidin-3-yl)oxy)phenyl)-N,1-dimethyl-1H-imidazo[4,5-c]pyridin-6-amine] | 0.01 to 100 | 101 to 500 | 0.01 to 100 |
| CCc1cc(-c2ccc(C#N)nc2)ccc1N(C)c1cc2c(cn1)ncn2C [Compound 114, 5-(3-ethyl-4-(methyl(1-methyl-1H-imidazo[4,5-c]pyridin-6-yl)amino)phenyl)picolino-nitrile] | 0.01 to 100 | 101 to 500 | 0.01 to 100 |
| CCc1cc(-c2cnc(NC(C)=O)nc2)ccc1N(C)c1cc2c(cn1)ncn2C [Compound 115, N-(5-(3-Ethyl-4-(methyl(1-methyl-1H-imidazo[4,5-c]pyridin-6-yl)amino)phenyl)pyrimidin-2-yl)acetamide] | 0.01 to 100 | 101 to 500 | 0.01 to 100 |

Now from value to molecule:

| IC50 (human JAK1) [nM] | IC50 (human JAK2) [nM] | IC50 (human TYK2) [nM] | SMILES |
| --- | --- | --- | --- |
| 0.01 to 100 | > 1000 | 501 to 1000 | Cc1cc(OCCCC#N)ccc1N(C)c1cc2c(cn1)ncn2C [Compound 48, 4-(3-methyl-4-(methyl(1-methyl-1H-imidazo[4,5-c]pyridin-6-yl)amino)phenoxy)butane nitrile] |
| 0.01 to 100 | > 1000 | 501 to 1000 | Cc1ccc(OCCCC#N)cc1N(C)c1cc2c(cn1)ncn2C [Compound 60, 4-(4-methyl-3-(methyl(1-methyl-1H-imidazo[4,5-c]pyridin-6-yl)amino)phenoxy)butane nitrile] |
| 0.01 to 100 | 101 to 500 | 101 to 500 | CCc1cc(C(=O)OC)ccc1N(C)c1cc2c(cn1)ncn2C [Compound 80, Methyl 3-ethyl-4-(methyl(1-methyl-1H-imidazo[4,5-c]pyridin-6-yl)amino)benzoate] |
| 0.01 to 100 | 101 to 500 | 0.01 to 100 | CCc1cc(CO)ccc1N(C)c1cc2c(cn1)ncn2C [Compound 81, (3-Ethyl-4-(methyl(1-methyl-1H-imidazo[4,5-c]pyridin-6-yl)amino)phenyl)MeOH] |
| 0.01 to 100 | 101 to 500 | 101 to 500 | CCc1ccc(C#N)cc1N(C)c1cc2c(cn1)ncn2C [Compound 83, 4-ethyl-3-(methyl(1-methyl-1H-imidazo[4,5-c]pyridin-6-yl)amino)benzonitrile] |
| 0.01 to 100 | 101 to 500 | 101 to 500 | CCc1ccc(F)cc1N(C)c1cc2c(cn1)ncn2C [Compound 84, N-(2-ethyl-5-fluorophenyl)-N,1-dimethyl-1H-imidazo[4,5-c]pyridin-6-amine] |
| 0.01 to 100 | 501 to 1000 | 101 to 500 | CCc1cc(C(=O)NC)ccc1N(C)c1cc2c(cn1)ncn2C [Compound 85] |
| 0.01 to 100 | 501 to 1000 | 501 to 1000 | CCc1cc(C(=O)NCCC#N)ccc1N(C)c1cc2c(cn1)ncn2C [Compound 86, N-(2-Cyanoethyl)-3-ethyl-4-(methyl(1-methyl-1H-imidazo[4,5-c]pyridin-6-yl)amino)benzamide] |
| 0.01 to 100 | 501 to 1000 | 501 to 1000 | CCc1cc(C(=O)NCc2ccccc2)ccc1N(C)c1cc2c(cn1)ncn2C [Compound 98, N-benzyl-3-ethyl-4-(methyl(1-methyl-1H-imidazo[4,5-c]pyridin-6-yl)amino)benzamide] |
| 0.01 to 100 | 0.01 to 100 | 0.01 to 100 | CCc1cc(C(C)O)ccc1N(C)c1cc2c(cn1)ncn2C (stereo not drawn) [Compound 101, 1-(3-Ethyl-4-(methyl(1-methyl-1H-imidazo[4,5-c]pyridin-6-yl)amino)phenyl)ethanol] |
| 0.01 to 100 | > 1000 | 101 to 500 | CCNC(=O)c1ccc(N(C)c2cc3c(cn2)ncn3C)c(CC)c1 [Compound 102, N,3-diethyl-4-(methyl(1-methyl-1H-imidazo[4,5-c]pyridin-6-yl)amino)benzamide] |
| 0.01 to 100 | 101 to 500 | 0.01 to 100 | CCc1cc(C(C)(C)O)ccc1N(C)c1cc2c(cn1)ncn2C [Compound 103, 2-(3-Ethyl-4-(methyl(1-methyl-1H-imidazo[4,5-c]pyridin-6-yl)amino)phenyl)propan-2-ol] |
| 0.01 to 100 | 101 to 500 | 0.01 to 100 | CCc1cc(COC)ccc1N(C)c1cc2c(cn1)ncn2C [Compound 105, N-(2-Ethyl-4-(methoxymethyl)phenyl)-N,1-dimethyl-1H-imidazo[4,5-c]pyridin-6-amine] |
| 0.01 to 100 | 0.01 to 100 | 0.01 to 100 | CCc1cc(O)ccc1N(C)c1cc2c(cn1)ncn2C [Compound 107, 3-ethyl-4-(methyl(1-methyl-1H-imidazo[4,5-c]pyridin-6-yl)amino)phenol] |
| 0.01 to 100 | 101 to 500 | 101 to 500 | CCc1cc(Cn2ccnc2)ccc1N(C)c1cc2c(cn1)ncn2C [Compound 111, N-(4-((1H-imidazol-1-yl)methyl)-2-ethylphenyl)-N,1-dimethyl-1H-imidazo[4,5-c]pyridin-6-amine] |
